The values below come from US10660877B2 (BRISTOL-MYERS SQUIBB COMPANY, priority 2016, dated 2020).

Like-named read-outs stand apart in the source and are kept apart here.

For one assay, the target named is human TLR7 (Homo sapiens (Human), UniProt Q9NYK1). Description: TLR7 inhibition reporter assay (HEK-Blue cells, SEAP reporter, gardiquimod stimulation). The assay is classed as cell-based.
The next assay relates to TLR7. Nature of the assay: In vivo mouse TLR7 PD model (gardiquimod challenge, plasma IL-6). On the set-up: species or system C57BL/6 mice. The following applies: oral. How it is done: In Vivo Mouse TLR7 and TLR9 PD Model:
(§1) Adult male C57BL/6 mice were used for the experiments. Mice (7 to 10 per group) were randomized into different treatment groups based on body weight. Mice from the respective treatment groups were administered orally with vehicle or test compound. Thirty min after the oral administration of vehicle or test compound, mice were challenged with intraperitoneal injection of gardiquimod for TLR7 PD model and CpG-ODN for TLR9 PD model. Ninety minutes after gardiquimod injection and 120 minutes after CpG-ODN injection, mice were bled under isoflurane anaesthesia and plasma IL-6 level was estimated by using commercially available ELISA kit (BD Biosciences). At the end of experiment, mean cytokine data was plotted and one way ANOVA with Dunnett's test was performed to calculate the significance of test compound treated group vs. vehicle control group. Percent inhibition of cytokine induction was calculated for test compound treated group vs vehicle control group.

In a further assay the test system is TLR9. Nature of the assay: In vivo mouse TLR9 PD model (CpG-ODN challenge, plasma IL-6). On the set-up: species or system C57BL/6 mice. The following applies: oral. On the procedure:
as §1, with “In Vivo Mouse TLR7 and TLR9 PD Model: Adult” for “Adult”

The next assay deals with MRL/lpr mice. Description: MRL/lpr model of systemic lupus erythematosus (proteinuria, urinary NGAL, anti-dsDNA Ab titer, lymphadenopathy). The assay is classed as in vivo, mouse. The following applies: oral once daily. On the procedure: MRL/lpr Model of Systemic Lupus Erythematosus (SLE) Male MRL/lpr mice of 12-14 weeks age were screened and randomized based on the titers of anti-dsDNA antibodies and urinary NGAL (Neutrophil Gelatinase Associated Lipocalin). Mice were treated orally, once daily for 8 weeks with vehicle or test compound. The effect of test compound on disease severity was assessed by measuring end points including proteinuria, urinary-NGAL, anti-dsDNA Ab titer, and lymphadenopathy. These end points were assessed before the start of treatment and after 4 and 8 weeks of treatment. At the end of experiment, all mice were euthanized by CO2 asphyxiation and kidney samples were subjected for histology. At the end of experiment, one way ANOVA with Dunnett's test was performed to calculate the significance of test compound treated group vs. vehicle control group. Percent reduction in disease severity was calculated for each parameter, for test compound treated group vs vehicle control group.

The next assay has as its target human TLR8 (Homo sapiens (Human), UniProt Q9NR97). Nature of the assay: TLR8 inhibition reporter assay (HEK-Blue cells, SEAP reporter, R848 stimulation). (A reporter such as luciferase makes a cellular process visible.);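 note: compounds tested from 0.05 nM to 50 µM, 22 h at 37 °C, SEAP measured with HEK-Blue Detection, inhibition relative to agonist plus DMSO versus a known inhibitor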
Another assay deals with human TLR9 (Homo sapiens (Human), UniProt Q9NR96). Nature of the assay: TLR9 inhibition reporter assay (HEK-Blue cells, SEAP reporter, ODN2006 stimulation).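 Note: compounds tested over 0.05 nM to 50 µM, 22 h incubation, inhibition taken as SEAP signal drop from agonist plus DMSO wells toward a known inhibitor control.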
Sequence of human TLR9 (Q9NR96 26-1032): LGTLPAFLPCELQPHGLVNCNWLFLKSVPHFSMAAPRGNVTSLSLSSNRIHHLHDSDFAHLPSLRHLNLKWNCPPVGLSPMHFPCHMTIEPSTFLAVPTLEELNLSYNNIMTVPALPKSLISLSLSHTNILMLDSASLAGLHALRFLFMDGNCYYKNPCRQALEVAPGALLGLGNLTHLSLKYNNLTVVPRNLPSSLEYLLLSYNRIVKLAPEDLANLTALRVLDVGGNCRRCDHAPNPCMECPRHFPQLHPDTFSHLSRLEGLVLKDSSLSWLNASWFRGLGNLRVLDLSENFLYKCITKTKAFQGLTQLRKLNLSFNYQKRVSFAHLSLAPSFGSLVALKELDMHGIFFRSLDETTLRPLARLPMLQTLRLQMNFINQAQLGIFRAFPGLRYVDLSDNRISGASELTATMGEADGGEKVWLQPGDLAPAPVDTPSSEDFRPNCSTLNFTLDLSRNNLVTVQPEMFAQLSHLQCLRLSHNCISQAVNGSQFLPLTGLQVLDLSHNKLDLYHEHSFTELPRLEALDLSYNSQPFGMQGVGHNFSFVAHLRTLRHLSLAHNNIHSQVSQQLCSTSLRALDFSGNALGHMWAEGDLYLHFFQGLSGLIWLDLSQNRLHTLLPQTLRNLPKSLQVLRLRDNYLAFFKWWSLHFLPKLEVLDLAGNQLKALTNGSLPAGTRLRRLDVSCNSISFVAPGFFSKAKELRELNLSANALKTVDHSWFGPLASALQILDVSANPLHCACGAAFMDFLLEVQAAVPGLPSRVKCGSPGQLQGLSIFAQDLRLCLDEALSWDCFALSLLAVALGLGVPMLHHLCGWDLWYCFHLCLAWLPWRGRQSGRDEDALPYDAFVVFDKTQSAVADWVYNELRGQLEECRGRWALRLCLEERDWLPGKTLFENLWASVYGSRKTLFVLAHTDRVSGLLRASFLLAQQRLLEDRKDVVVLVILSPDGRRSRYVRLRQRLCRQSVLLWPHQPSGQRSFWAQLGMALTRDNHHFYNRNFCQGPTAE
Setting [1] is: HEK-Blue cells overexpressing human TLR7, gardiquimod 7.5 μM.
The mark [2] stands for this setting: read-out: TLR8 IC50, HEK-Blue cells overexpressing human TLR8, R848 15.9 μM.
[3] abbreviates: read-out: TLR9 IC50, HEK-Blue cells overexpressing human TLR9, ODN2006 5 nM.
The mark [4] stands for this setting: HEK-Blue cells, gardiquimod 7.5 μM.
The mark [5] stands for this setting: read-out: TLR8 IC50, HEK-Blue cells, R848 15.9 μM.
[6] abbreviates: read-out: TLR9 IC50, HEK-Blue cells, ODN2006 5 nM.

Sequence of human TLR7 (Q9NYK1 27-1049): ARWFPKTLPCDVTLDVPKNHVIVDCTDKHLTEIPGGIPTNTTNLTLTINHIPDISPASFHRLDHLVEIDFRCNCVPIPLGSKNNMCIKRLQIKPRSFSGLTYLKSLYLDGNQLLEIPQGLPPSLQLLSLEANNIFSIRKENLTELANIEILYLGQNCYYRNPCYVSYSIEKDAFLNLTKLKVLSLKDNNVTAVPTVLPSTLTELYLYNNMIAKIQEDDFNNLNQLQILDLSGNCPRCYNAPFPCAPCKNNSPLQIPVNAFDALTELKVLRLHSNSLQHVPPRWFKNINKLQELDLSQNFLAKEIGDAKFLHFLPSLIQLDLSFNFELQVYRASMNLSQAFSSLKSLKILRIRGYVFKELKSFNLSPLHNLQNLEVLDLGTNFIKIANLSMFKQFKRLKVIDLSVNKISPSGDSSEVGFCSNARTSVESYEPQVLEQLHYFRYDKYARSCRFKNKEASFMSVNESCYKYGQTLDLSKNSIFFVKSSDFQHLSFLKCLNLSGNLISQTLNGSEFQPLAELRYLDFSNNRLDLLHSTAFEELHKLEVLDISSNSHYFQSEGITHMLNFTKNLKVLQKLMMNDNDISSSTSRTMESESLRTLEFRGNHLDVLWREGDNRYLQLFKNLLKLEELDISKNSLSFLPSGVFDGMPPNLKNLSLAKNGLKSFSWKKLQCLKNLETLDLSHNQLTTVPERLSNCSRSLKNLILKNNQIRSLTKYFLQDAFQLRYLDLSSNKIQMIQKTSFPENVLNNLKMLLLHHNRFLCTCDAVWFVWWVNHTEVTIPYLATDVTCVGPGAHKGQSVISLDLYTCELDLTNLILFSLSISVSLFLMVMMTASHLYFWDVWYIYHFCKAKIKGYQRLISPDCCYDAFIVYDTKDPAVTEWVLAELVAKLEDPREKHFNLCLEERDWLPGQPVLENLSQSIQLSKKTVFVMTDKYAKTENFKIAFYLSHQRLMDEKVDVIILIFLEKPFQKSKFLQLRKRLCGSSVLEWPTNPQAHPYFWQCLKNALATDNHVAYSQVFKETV
Sequence of human TLR8 (Q9NR97 27-1041): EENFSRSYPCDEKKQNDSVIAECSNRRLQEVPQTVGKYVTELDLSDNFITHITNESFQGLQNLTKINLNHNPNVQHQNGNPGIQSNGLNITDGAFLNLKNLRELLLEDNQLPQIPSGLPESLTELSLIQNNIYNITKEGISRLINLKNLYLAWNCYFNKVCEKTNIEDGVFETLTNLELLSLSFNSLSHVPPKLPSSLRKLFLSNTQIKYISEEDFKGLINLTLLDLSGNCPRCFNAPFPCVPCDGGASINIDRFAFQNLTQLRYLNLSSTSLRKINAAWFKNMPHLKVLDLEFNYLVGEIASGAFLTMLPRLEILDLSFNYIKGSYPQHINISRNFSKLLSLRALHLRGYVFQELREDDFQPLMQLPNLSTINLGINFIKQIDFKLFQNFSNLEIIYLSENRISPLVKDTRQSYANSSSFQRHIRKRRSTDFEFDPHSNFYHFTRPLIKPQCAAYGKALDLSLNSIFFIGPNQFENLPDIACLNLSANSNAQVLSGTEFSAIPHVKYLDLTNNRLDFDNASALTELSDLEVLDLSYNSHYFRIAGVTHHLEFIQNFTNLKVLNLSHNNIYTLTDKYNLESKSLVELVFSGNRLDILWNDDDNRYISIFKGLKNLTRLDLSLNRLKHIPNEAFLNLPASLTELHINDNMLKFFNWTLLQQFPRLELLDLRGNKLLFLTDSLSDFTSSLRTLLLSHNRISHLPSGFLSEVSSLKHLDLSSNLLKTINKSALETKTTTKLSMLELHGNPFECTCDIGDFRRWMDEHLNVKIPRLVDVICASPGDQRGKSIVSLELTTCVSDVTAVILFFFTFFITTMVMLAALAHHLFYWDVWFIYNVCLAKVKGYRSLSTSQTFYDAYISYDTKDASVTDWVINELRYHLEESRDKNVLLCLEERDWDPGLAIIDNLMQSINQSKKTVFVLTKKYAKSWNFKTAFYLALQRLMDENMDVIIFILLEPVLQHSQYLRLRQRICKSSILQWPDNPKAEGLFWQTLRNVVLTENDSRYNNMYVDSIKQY

By IC50 is commonly meant the concentration needed to halve the response being measured. In the case of `Cc1cc(-c2[nH]c3ccc(C4CCNCC4)cc3c2C(C)C)cc(C)n1.Cl` [Example 1, 2-(2,6-dimethylpyridin-4-yl)-3-isopropyl-5-(piperidin-4-yl)-1H-indole hydrochloride], the IC50 against human TLR7 (setting [1]) came out at 0.7 nM; on human TLR8 (setting [2]), 3.2 nM. The “% inhibition of IL6” value in the assay on TLR7 (0.03 mg/kg) is reported as 28%; in the assay with TLR7 (0.05 mg/kg) it was 66%; in the assay on TLR7 (0.5 mg/kg), 98%; with TLR9 (1 mg/kg) it was 16%; in the assay with TLR9 (3 mg/kg), 29%; with TLR9 (10 mg/kg), 33%. The “% inhibition of IL6” value with TLR9 (30 mg/kg) turned out to be 38%. For the same molecule, the “% inhibition Anti-dsDNA antibody titer” value in the assay on MRL/lpr mice (0.1 mg/kg) was 1%; with MRL/lpr mice (1 mg/kg) it was 14%; in the assay on MRL/lpr mice (5 mg/kg) it was 20%; in the assay on MRL/lpr mice (20 mg/kg), 53%. In addition, the “% inhibition IL-10” value in the assay on MRL/lpr mice (0.1 mg/kg) is given as 24%; with MRL/lpr mice (1 mg/kg) it was 32%; in the assay with MRL/lpr mice (5 mg/kg), 39%; in the assay on MRL/lpr mice (20 mg/kg) it was 53%. Besides, the “% inhibition IL-12p40” value in the assay with MRL/lpr mice (0.1 mg/kg) worked out at 12%; in the assay with MRL/lpr mice (1 mg/kg), 26%; with MRL/lpr mice (5 mg/kg) it was 30%; in the assay on MRL/lpr mice (20 mg/kg), 35%. The “% inhibition Lymphadenopathy” value came to 3% in the assay with MRL/lpr mice (0.1 mg/kg), 31% in the assay with MRL/lpr mice (1 mg/kg), 33% in the assay with MRL/lpr mice (5 mg/kg) and 53% in the assay on MRL/lpr mice (20 mg/kg). In addition, the “% inhibition Proteinuria” value with MRL/lpr mice (0.1 mg/kg) is reported as 69%; in the assay on MRL/lpr mice (1 mg/kg) it was 92%; in the assay with MRL/lpr mice (5 mg/kg), 92%; in the assay on MRL/lpr mice (20 mg/kg), 93%. Also, the “% inhibition Urinary NGAL” value amounted to 52% with MRL/lpr mice (0.1 mg/kg), 69% in the assay on MRL/lpr mice (1 mg/kg), 72% with MRL/lpr mice (5 mg/kg) and 81% in the assay with MRL/lpr mice (20 mg/kg).
`Cc1cc(-c2[nH]c3ccc(C4CCN(CC(=O)N(C)C)CC4)cc3c2C(C)C)cc(C)n1` [Example 308, 2-(4-(2-(2,6-dimethylpyridin-4-yl)-3-isopropyl-1H-indol-5-yl)piperidin-1-yl)-N,N-dimethylacetamide]: the concentration for half-maximal inhibition (IC50) on human TLR7 (setting [1]) amounted to 1.5 nM; at human TLR8 (setting [2]), 4.3 nM; on human TLR9 (setting [3]), 359 nM. Also, the “% inhibition of IL6” value is given as 30% in the assay on TLR7 (0.002 mg/kg), 47% in the assay with TLR7 (0.008 mg/kg), 81% with TLR7 (0.032 mg/kg) and 98% in the assay with TLR7 (0.160 mg/kg).
Take `CNC(=O)CN1CCC(c2ccc3[nH]c(-c4cc(C)nc(C)c4)c(C(C)C)c3c2)CC1` [Example 309, 2-(4-(2-(2,6-dimethylpyridin-4-yl)-3-isopropyl-1H-indol-5-yl)piperidin-1-yl)-N-methylacetamide]: the IC50 on human TLR7 (setting [1]) turned out to be 2 nM; on human TLR8 (setting [2]) it was 5.5 nM; at human TLR9 (setting [3]) it was 789 nM. For the same molecule, the “% inhibition of IL6” value in the assay on TLR7 (0.0005 mg/kg) turned out to be 12%; in the assay with TLR7 (0.005 mg/kg) it was 65%; in the assay on TLR7 (0.05 mg/kg), 89%; in the assay with TLR7 (0.25 mg/kg) it was 91%.
On to `Cc1cc(-c2[nH]c3ccc(C4CCN(C(C)CF)CC4)cc3c2C(C)C)c(C)cn1` (centres unmarked) [Example 870, 2-(2,5-dimethylpyridin-4-yl)-5-(1-(1-fluoropropan-2-yl)piperidin-4-yl)-3-isopropyl-1H-indole], for which the IC50 came out at 19.7 nM against human TLR7 (setting [4]), 4.1 nM at human TLR8 (setting [5]) and 1440 nM at human TLR9 (setting [6]).
`Cc1cc(-c2[nH]c3ccc(C4CCN(CC5CC5)CC4)cc3c2C(C)C)c(C)cn1` [Example 871, 5-(1-(cyclopropylmethyl)piperidin-4-yl)-2-(2,5-dimethylpyridin-4-yl)-3-isopropyl-1H-indole]: the half-inhibitory concentration (IC50) is 10 nM on human TLR7 (setting [4]), 3.2 nM on human TLR8 (setting [5]) and 1840 nM at human TLR9 (setting [6]).
The corresponding values for `Cc1cc(-c2[nH]c3ccc(C4CCN(CC5(C)COC5)CC4)cc3c2C(C)C)c(C)cn1` [Example 872, 2-(2,5-dimethylpyridin-4-yl)-3-isopropyl-5-(1-((3-methyloxetan-3-yl)methyl)piperidin-4-yl)-1H-indole] are 20.6 nM, 2.8 nM and 2320 nM.
Taken in the same sequence, the figures for `Cc1cc(-c2[nH]c3cc(C(F)(F)F)c(C4CCN(CC5CCNC5)CC4)cc3c2C(C)C)ccn1` (centres unmarked) [Example 873, 3-isopropyl-2-(2-methylpyridin-4-yl)-5-(1-(pyrrolidin-3-ylmethyl)piperidin-4-yl)-6-(trifluoromethyl)-1H-indole] were 13.5 nM, 467 nM and 96 nM.
The corresponding values for `Cc1cc(-c2[nH]c3ccc(C4CCN(CC5CCN(C(C)C)CC5)CC4)c(F)c3c2C(C)C)ccn1` [Example 874, 4-fluoro-3-isopropyl-5-(1-((1-isopropylpiperidin-4-yl)methyl)piperidin-4-yl)-2-(2-methylpyridin-4-yl)-1H-indole] are 15.4 nM, 33.6 nM and 445 nM.
Consider `Cc1cc(-c2[nH]c3ccc(C4CCN(CC(=O)O)CC4)cc3c2C(C)C)cc(C)n1` [Example 875, 2-(4-(2-(2,6-dimethylpyridin-4-yl)-3-isopropyl-1H-indol-5-yl)piperidin-1-yl)acetic acid], for which the IC50 at human TLR7 (setting [4]) amounted to 31 nM; at human TLR8 (setting [5]), 248 nM; on human TLR9 (setting [6]) it was 10100 nM.
The corresponding values for `CCc1c(-c2ccnc(C)c2)[nH]c2ccc(C3CCN(CC(=O)O)CC3)cc12` [Example 876, 2-(4-(3-ethyl-2-(2-methylpyridin-4-yl)-1H-indol-5-yl)piperidin-1-yl)acetic acid] are 958 nM, 1940 nM and 46700 nM.
The corresponding values for `CCc1c(-c2ccnc(C)c2)[nH]c2ccc(C3CCN(CC(O)CN(C)C(C)C)CC3)cc12` (centres unmarked) [Example 877, 1-(4-(3-ethyl-2-(2-methylpyridin-4-yl)-1H-indol-5-yl)piperidin-1-yl)-3-(isopropyl(methyl)amino)propan-2-ol] are 30.6 nM, 2.9 nM and 16 nM.
As for `Cc1cc(-c2[nH]c3ccc(C4CCN(C(=O)C(=O)N(C)C)CC4)cc3c2C(C)C)ccn1` [Example 878, 2-(4-(3-isopropyl-2-(2-methylpyridin-4-yl)-1H-indol-5-yl)piperidin-1-yl)-N,N-dimethyl-2-oxoacetamide], the figures for the 50% inhibitory concentration (IC50) against human TLR7 (setting [4]), at human TLR8 (setting [5]) and at human TLR9 (setting [6]) were 55.1 nM, 175 nM and 28000 nM, respectively.
Turning to `CNC(=O)C(=O)N1CCC(c2ccc3[nH]c(-c4ccnc(C)c4)c(C(C)C)c3c2)CC1` [Example 879, 2-(4-(3-isopropyl-2-(2-methylpyridin-4-yl)-1H-indol-5-yl)piperidin-1-yl)-N-methyl-2-oxoacetamide], the IC50 against human TLR7 (setting [4]) was 37 nM; on human TLR8 (setting [5]), 168 nM; on human TLR9 (setting [6]) it was above 50000 nM.
